Each block holds one molecule with its values, some of them ahead of it. Calls of active or inactive are those of the source. No cut-off for these calls is given here.
Assays:
MGC-803 [1] = test: Antiproliferative activity against human MGC803 cells incubated for 48 hrs and measured after 4 hrs by MTT assay; assay type: functional, cell-based
SGC-7901 [2] = test: Antiproliferative activity against human SGC7901 cells incubated for 48 hrs and measured after 4 hrs by MTT assay; assay type: functional, cell-based
A549 [3] = test: Antiproliferative activity against human A549 cells incubated for 48 hrs and measured after 4 hrs by MTT assay; assay type: functional, cell-based
MCF7 [4] = test: Antiproliferative activity against human MCF7 cells incubated for 48 hrs and measured after 4 hrs by MTT assay; assay type: functional, cell-based
PC-3 [5] = test: Antiproliferative activity against human PC3 cells incubated for 48 hrs and measured after 4 hrs by MTT assay; assay type: functional, cell-based
[6] = Cytotoxicity against human IOSE-144 cells incubated for 48 hrs and measured after 4 hrs by MTT assay; assay type: cell-based
MGC-803 [7] = test: Potency index, ratio of IC50 for AD-2 to IC50 for test compound for antiproliferative activity against human MGC803 incubated for 48 hrs and measured after 4 hrs by MTT assay; assay type: functional
A549 [8] = test: Cell cycle arrest in human A549 cells assessed as decrease in accumulation of cells at G0/G1 phase at 5 to 10 uM after 24 hrs by propidium iodide staining-based flow cytometric analysis; assay type: functional
A549 [9] = test: Cell cycle arrest in human A549 cells assessed as decrease in accumulation of cells at G2/M phase at 5 to 10 uM after 24 hrs by propidium iodide staining-based flow cytometric analysis; assay type: functional
A549 [10] = test: Cell cycle arrest in human A549 cells assessed as increase in accumulation of cells at S phase at 5 to 10 uM after 24 hrs by propidium iodide staining-based flow cytometric analysis; assay type: functional
A549 [11] = test: Cell cycle arrest in human A549 cells assessed as increase in accumulation of cells at sub G0/G1 phase after 24 hrs by propidium iodide staining-based flow cytometric analysis; assay type: functional
A549 [12] = test: Cell cycle arrest in human A549 cells assessed as increase in expression of p21 at 5 to 20 uM measured after 12 hrs by Western blot analysis; assay type: functional, cell-based
A549 [13] = test: Cell cycle arrest in human A549 cells assessed as increase in expression of p53 at 5 to 20 uM measured after 12 hrs by Western blot analysis; assay type: functional, cell-based
A549 [14] = test: Induction of apoptosis in human A549 cells assessed as cell shrinkage at 10 to 20 uM by microscopic analysis; assay type: functional, cell-based
A549 [15] = test: Induction of apoptosis in human A549 cells assessed as appearance of apoptotic bodies at 10 to 20 uM by microscopic analysis; assay type: functional, cell-based
A549 [16] = test: Induction of apoptosis in human A549 cells assessed as appearance of fragmented apoptotic bodies at 10 to 20 uM measured after 12 hrs by DAPI staining based fluorescence microscopic analysis; assay type: functional, cell-based
A549 [17] = test: Induction of apoptosis in human A549 cells assessed as nuclear condensation at 10 to 20 uM measured after 12 hrs by DAPI staining based fluorescence microscopic analysis; assay type: functional, cell-based
A549 [18] = test: Induction of apoptosis in human A549 cells assessed as nuclear shrinkage at 10 to 20 uM measured after 12 hrs by DAPI staining based fluorescence microscopic analysis; assay type: functional, cell-based
A549 [19] = test: Induction of apoptosis in human A549 cells assessed as early apoptotic cells at 10 uM after 12 hrs by Annexin V-FITC/propidium iodide staining-based flow cytometric analysis (reference value: 0.9%); assay type: functional
A549 [20] = test: Induction of apoptosis in human A549 cells assessed as early apoptotic cells at 15 uM after 12 hrs by Annexin V-FITC/propidium iodide staining-based flow cytometric analysis (reference value: 0.9%); assay type: functional
A549 [21] = test: Induction of ROS generation in human A549 cells assessed as intracellular ROS level at 10 to 15 uM after 30 mins in presence of NAC by DCFH-DA staining-based flow cytometric analysis; assay type: functional, cell-based
A549 [22] = test: Induction of ROS generation in human A549 cells assessed as intracellular ROS level at 10 to 15 uM after 30 mins by DCFH-DA staining-based flow cytometric analysis; assay type: functional, cell-based
A549 [23] = test: Induction of apoptosis in human A549 cells at 10 to 15 uM after 12 hrs by flow cytometric analysis; assay type: functional, cell-based
A549 [24] = test: Induction of apoptosis in human A549 cells at 10 to 15 uM in presence of NAC after 12 hrs by flow cytometric analysis; assay type: functional, cell-based
A549 [25] = test: Suppression of mitochondrial membrane potential in human A549 cells assessed as increase in green fluorescence at 10 uM after 12 hrs by JC-1 staining based flow cytometry (reference value: 0.4%); assay type: functional
A549 [26] = test: Suppression of mitochondrial membrane potential in human A549 cells assessed as increase in green fluorescence at 15 uM after 12 hrs by JC-1 staining based flow cytometry (reference value: 0.4%); assay type: functional
A549 [27] = test: Induction of apoptosis in human A549 cells assessed as decrease in Bcl2 protein expression level at 5 to 20 uM incubated for 12 hrs by Western blot analysis; assay type: functional, cell-based
A549 [28] = test: Induction of apoptosis in human A549 cells assessed as upregulation of Bax protein expression at 5 to 20 uM incubated for 12 hrs by Western blot analysis; assay type: functional, cell-based
A549 [29] = test: Induction of apoptosis in human A549 cells assessed as upregulation of Cyt c protein expression at 5 to 20 uM incubated for 12 hrs by Western blot analysis; assay type: functional, cell-based
A549 [30] = test: Induction of apoptosis in human A549 cells assessed as decrease in PARP protein expression level at 5 to 20 uM incubated for 12 hrs by Western blot analysis; assay type: functional, cell-based
A549 [31] = test: Induction of apoptosis in human A549 cells assessed as decrease in caspase-3 protein expression level at 5 to 20 uM incubated for 12 hrs by Western blot analysis; assay type: functional, cell-based
A549 [32] = test: Induction of apoptosis in human A549 cells assessed as decrease in caspase-9 protein expression level at 5 to 20 uM incubated for 12 hrs by Western blot analysis; assay type: functional, cell-based
A549 [33] = test: Induction of apoptosis in human A549 cells assessed as increase in cleaved PARP protein expression level at 5 to 20 uM incubated for 12 hrs by Western blot analysis; assay type: functional, cell-based
A549 [34] = test: Induction of apoptosis in human A549 cells assessed as increase in cleaved caspase-3 protein expression level at 5 to 20 uM incubated for 12 hrs by Western blot analysis; assay type: functional, cell-based
A549 [35] = test: Induction of apoptosis in human A549 cells assessed as increase in cleaved caspase-9 protein expression level at 5 to 20 uM incubated for 12 hrs by Western blot analysis; assay type: functional, cell-based
SGC-7901 [36] = test: Potency index, ratio of IC50 for AD-2 to IC50 for test compound for antiproliferative activity against human SGC7901 incubated for 48 hrs and measured after 4 hrs by MTT assay; assay type: functional
A549 [37] = test: Potency index, ratio of IC50 for AD-2 to IC50 for test compound for antiproliferative activity against human A549 incubated for 48 hrs and measured after 4 hrs by MTT assay; assay type: functional
MCF7 [38] = test: Potency index, ratio of IC50 for AD-2 to IC50 for test compound for antiproliferative activity against human MCF7 incubated for 48 hrs and measured after 4 hrs by MTT assay; assay type: functional
PC-3 [39] = test: Potency index, ratio of IC50 for AD-2 to IC50 for test compound for antiproliferative activity against human PC3 incubated for 48 hrs and measured after 4 hrs by MTT assay; assay type: functional
A549 [40] = test: Induction of apoptosis in human A549 cells measured after 12 hrs by Annexin V-FITC/propidium iodide staining-based flow cytometric analysis; assay type: functional, cell-based

IC50 (MGC-803 [1]): 6.51 µM | IC50 (SGC-7901 [2]): 7.11 µM | IC50 (A549 [3]): 1.07 µM | IC50 (MCF7 [4]): 1.27 µM | IC50 (PC-3 [5]): 5.44 µM
SMILES: CC(C)(O)CCC[C@@](C)(O)[C@H]1CC[C@]2(C)[C@@H]1[C@H](O)C[C@@H]1[C@@]3(C)CC[C@H](OC(=O)C4CCNCC4)C(C)(C)[C@@H]3CC[C@]12C
IC50 [6]: > 100 µM | Ratio IC50 (MGC-803 [7]): 5 - 28 | Activity (A549 [8]): Active | Activity (A549 [9]): Active | Activity (A549 [10]): Active | Activity (A549 [11]): Active | Activity (A549 [12]): Active | Activity (A549 [13]): Active | Activity (A549 [14]): Active | Activity (A549 [15]): Active | Activity (A549 [16]): Active | Activity (A549 [17]): Active | Activity (A549 [18]): Active | Activity (A549 [19]): 27% | Activity (A549 [20]): 50% | Activity (A549 [21]): inactive | Activity (A549 [22]): Active | Activity (A549 [23]): Active | Activity (A549 [24]): inactive | Activity (A549 [25]): 7.5% | Activity (A549 [26]): 27.6% | Activity (A549 [27]): Active | Activity (A549 [28]): Active | Activity (A549 [29]): Active | Activity (A549 [30]): Active | Activity (A549 [31]): Active | Activity (A549 [32]): Active | Activity (A549 [33]): Active | Activity (A549 [34]): Active | Activity (A549 [35]): Active | Ratio IC50 (SGC-7901 [36]): 5 - 28 | Ratio IC50 (A549 [37]): 5 - 28 | Ratio IC50 (MCF7 [38]): 5 - 28 | Ratio IC50 (PC-3 [39]): 5 - 28 | Activity (A549 [40]): Dose-dependent effect

IC50 (MGC-803 [1]): 9.32 µM | IC50 (SGC-7901 [2]): 11.2 µM | IC50 (A549 [3]): 12.6 µM | IC50 (MCF7 [4]): 8.32 µM | IC50 (PC-3 [5]): 13.1 µM
SMILES: CC(C)(O)CCC[C@@](C)(O)[C@H]1CC[C@]2(C)[C@@H]1[C@H](O)C[C@@H]1[C@@]3(C)C/C(=C\c4ccc(F)cc4F)C(=O)C(C)(C)[C@@H]3CC[C@]12C
IC50 [6]: > 100 µM | Ratio IC50 (MGC-803 [7]): 3 - 8 | Ratio IC50 (SGC-7901 [36]): 3 - 8 | Ratio IC50 (A549 [37]): 3 - 8 | Ratio IC50 (MCF7 [38]): 3 - 8 | Ratio IC50 (PC-3 [39]): 3 - 8

SMILES: CC(C)(O)CCC[C@@](C)(O)[C@H]1CC[C@]2(C)[C@@H]1[C@H](O)C[C@@H]1[C@@]3(C)CC[C@H](O)C(C)(C)[C@@H]3CC[C@]12C
IC50 (MGC-803 [1]): 69.8 µM | IC50 (SGC-7901 [2]): 34 µM | IC50 (A549 [3]): 22.7 µM | IC50 (MCF7 [4]): 28.5 µM | IC50 (PC-3 [5]): 45.7 µM | IC50 [6]: > 100 µM | Activity (A549 [16]): inactive | Activity (A549 [17]): inactive | Activity (A549 [18]): inactive

IC50 (MGC-803 [1]): 26.1 µM | IC50 (SGC-7901 [2]): > 100 µM | IC50 (A549 [3]): 38.6 µM | IC50 (MCF7 [4]): > 100 µM | IC50 (PC-3 [5]): 16.5 µM
SMILES: CC(C)(O)CCC[C@@](C)(O)[C@H]1CC[C@]2(C)[C@@H]1[C@H](O)C[C@@H]1[C@@]3(C)C/C(=C\c4ccc(Br)cc4)[C@H](O)C(C)(C)[C@@H]3CC[C@]12C
IC50 [6]: > 100 µM

Source: ChEMBL document CHEMBL4376871, “Synthesis and anti-cancer activity studies of dammarane-type triterpenoid derivatives” (Eur J Med Chem, 2020)
